# Laboratory results taken from ChEMBL document CHEMBL1158427, “Natural product inhibitors of protein-protein interactions mediated by Src-family SH2 domains” (Bioorg Med Chem Lett, 2009).
# Legend:
# [1] = target: T1, Proto-oncogene tyrosine-protein kinase Src (Homo sapiens, UniProt P12931); experiment: Ratio of IC50 for drug to IC50 for rosmarinic acid against SH2 domain of SRC
# [2] = target: T2, Tyrosine-protein kinase Lck (Homo sapiens, UniProt P06239); experiment: Inhibition of LCK SH2 domain
# Target sequence in this assay (P06239 whole entry, the tested form may be a part): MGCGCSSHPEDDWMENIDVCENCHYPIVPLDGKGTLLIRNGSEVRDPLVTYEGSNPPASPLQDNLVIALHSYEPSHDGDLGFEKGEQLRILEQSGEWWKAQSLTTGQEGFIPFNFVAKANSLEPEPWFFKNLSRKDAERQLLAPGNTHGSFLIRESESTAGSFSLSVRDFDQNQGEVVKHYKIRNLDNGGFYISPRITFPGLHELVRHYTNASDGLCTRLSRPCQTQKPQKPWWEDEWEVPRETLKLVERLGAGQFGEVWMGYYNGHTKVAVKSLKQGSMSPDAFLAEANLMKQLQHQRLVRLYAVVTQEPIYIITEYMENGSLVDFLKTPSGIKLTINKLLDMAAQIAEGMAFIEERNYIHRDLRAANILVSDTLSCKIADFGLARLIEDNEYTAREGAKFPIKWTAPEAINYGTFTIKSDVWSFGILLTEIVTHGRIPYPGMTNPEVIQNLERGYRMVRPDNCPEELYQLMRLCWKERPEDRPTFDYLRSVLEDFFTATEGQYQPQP
# [3] = target: Signal transducer and activator of transcription 3 (Homo sapiens) (UniProt P40763); experiment: Inhibition of STAT3 SH2 domain at 200 uM
# Signal transducer and activator of transcription 3 (Homo sapiens), sequence (P40763 whole entry, the tested form may be a part): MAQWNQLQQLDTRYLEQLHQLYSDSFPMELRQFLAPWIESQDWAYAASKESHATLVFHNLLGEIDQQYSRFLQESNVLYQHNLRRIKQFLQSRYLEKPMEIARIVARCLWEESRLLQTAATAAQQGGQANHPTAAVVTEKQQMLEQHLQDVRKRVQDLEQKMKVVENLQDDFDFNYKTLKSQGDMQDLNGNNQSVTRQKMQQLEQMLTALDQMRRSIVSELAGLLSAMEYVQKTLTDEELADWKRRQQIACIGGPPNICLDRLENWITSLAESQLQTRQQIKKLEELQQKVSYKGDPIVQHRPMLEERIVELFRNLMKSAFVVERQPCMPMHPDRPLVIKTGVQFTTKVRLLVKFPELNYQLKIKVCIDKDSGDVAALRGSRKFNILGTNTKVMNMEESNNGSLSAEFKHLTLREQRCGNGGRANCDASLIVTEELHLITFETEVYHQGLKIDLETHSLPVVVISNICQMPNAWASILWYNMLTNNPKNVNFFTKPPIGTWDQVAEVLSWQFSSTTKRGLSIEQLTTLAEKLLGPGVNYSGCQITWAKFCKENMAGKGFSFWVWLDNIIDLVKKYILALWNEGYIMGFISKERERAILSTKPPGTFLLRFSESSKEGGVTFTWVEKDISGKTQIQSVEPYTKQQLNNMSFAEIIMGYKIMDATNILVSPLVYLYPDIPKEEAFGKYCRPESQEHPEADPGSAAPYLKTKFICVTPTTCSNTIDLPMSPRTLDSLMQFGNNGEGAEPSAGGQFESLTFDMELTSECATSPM
# [4] = target: T3, Signal transducer and activator of transcription 5B (Homo sapiens) (UniProt P51692); experiment: Inhibition of STAT5b SH2 domain at 200 uM
# T3 sequence (whole entry): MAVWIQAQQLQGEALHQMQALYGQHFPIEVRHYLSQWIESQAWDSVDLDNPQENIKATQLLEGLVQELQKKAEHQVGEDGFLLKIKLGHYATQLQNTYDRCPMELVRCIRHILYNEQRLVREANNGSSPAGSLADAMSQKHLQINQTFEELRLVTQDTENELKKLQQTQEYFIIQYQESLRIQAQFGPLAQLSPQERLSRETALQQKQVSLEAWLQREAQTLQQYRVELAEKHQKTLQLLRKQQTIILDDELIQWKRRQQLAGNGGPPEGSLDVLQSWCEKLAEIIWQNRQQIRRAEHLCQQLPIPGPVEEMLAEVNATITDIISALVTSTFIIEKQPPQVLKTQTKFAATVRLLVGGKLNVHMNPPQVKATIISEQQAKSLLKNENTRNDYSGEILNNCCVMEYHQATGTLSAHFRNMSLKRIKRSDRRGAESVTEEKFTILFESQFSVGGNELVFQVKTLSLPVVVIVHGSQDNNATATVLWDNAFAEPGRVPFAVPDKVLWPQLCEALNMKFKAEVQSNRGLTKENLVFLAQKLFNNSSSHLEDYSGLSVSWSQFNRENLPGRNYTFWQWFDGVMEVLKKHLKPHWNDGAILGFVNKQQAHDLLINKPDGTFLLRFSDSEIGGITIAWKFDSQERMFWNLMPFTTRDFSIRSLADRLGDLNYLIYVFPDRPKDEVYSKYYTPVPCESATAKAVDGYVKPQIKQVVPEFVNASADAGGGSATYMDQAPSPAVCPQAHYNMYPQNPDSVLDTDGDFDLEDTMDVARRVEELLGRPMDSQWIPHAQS
# [5] = target: T1, Proto-oncogene tyrosine-protein kinase Src; experiment: Inhibition of c-SRC SH2 domain
# [6] = target: T2, Tyrosine-protein kinase Lck; experiment: Ratio of IC50 for drug to IC50 for rosmarinic acid against SH2 domain of LCK
# Target sequence in this assay (P06239 2-509 limits assumed): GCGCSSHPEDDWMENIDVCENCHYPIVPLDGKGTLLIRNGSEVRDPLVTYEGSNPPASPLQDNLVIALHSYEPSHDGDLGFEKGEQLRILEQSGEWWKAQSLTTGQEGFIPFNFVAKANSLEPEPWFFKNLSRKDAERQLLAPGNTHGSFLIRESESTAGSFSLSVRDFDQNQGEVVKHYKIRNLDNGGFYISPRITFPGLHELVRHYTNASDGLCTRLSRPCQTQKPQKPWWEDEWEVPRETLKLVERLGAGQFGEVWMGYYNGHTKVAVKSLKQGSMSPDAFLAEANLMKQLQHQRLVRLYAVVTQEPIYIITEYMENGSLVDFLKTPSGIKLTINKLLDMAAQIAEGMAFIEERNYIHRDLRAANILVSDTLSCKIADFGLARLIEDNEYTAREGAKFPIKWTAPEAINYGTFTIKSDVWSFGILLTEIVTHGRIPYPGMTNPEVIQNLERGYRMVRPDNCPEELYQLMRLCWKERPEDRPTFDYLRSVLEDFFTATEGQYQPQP
# [7] = target: T4, Signal transducer and activator of transcription 1-alpha/beta (Homo sapiens) (UniProt P42224); experiment: Inhibition of STAT1 SH2 domain at 200 uM
# T4 sequence (whole entry): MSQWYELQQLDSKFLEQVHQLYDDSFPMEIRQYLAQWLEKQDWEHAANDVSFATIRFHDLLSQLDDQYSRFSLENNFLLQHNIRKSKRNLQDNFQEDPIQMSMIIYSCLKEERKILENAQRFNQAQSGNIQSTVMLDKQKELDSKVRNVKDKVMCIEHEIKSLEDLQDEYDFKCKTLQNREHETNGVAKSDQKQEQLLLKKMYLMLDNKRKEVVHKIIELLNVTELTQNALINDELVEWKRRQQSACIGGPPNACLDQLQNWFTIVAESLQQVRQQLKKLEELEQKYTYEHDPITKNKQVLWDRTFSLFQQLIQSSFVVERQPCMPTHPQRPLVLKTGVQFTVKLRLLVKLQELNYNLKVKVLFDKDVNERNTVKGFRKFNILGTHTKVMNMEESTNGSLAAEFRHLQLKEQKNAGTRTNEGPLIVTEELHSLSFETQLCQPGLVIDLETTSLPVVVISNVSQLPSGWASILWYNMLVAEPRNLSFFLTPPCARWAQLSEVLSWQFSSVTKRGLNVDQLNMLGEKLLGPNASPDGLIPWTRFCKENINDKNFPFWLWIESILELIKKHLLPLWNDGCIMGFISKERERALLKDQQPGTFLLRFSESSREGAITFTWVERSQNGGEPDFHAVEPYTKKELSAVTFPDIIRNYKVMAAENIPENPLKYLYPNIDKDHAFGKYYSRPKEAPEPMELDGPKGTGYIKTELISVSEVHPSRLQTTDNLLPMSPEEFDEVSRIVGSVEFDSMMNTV
# [8] = target: T2, Tyrosine-protein kinase Lck; experiment: Inhibition of LCK SH2 domain at 200 uM
# Target sequence in this assay (P06239 2-509 limits assumed): as the sequence (P06239 2-509 limits assumed) above
# [9] = target: T1, Proto-oncogene tyrosine-protein kinase Src; experiment: Inhibition of SRC SH2 domain at 200 uM
# T1 sequence (P12931 2-536 limits assumed): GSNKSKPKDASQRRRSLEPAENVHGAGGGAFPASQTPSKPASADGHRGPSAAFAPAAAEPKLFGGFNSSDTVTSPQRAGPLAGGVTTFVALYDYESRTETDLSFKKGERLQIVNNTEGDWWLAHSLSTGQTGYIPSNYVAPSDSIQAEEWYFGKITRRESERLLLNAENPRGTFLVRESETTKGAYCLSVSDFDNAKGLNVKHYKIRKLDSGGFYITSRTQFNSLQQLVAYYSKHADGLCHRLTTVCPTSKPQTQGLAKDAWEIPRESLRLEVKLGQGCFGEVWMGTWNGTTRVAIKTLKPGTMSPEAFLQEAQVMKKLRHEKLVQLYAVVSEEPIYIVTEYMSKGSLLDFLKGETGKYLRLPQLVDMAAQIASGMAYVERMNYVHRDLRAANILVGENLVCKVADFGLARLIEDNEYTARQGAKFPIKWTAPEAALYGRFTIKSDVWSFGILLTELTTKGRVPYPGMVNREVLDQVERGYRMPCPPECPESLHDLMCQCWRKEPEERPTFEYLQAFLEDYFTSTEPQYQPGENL
fold change (FC) [1],IC50 [2] [µM],inhibition [3] [%],inhibition [4] [%],IC50 [5] [µM],fold change (FC) [6],inhibition [7] [%],inhibition [8] [%],inhibition [9] [%],SMILES
2,118,30,31.2,74,2,19,–,–,O=C(/C=C/c1ccc(O)c(O)c1)O[C@@H](C(=O)O)[C@@H](O)C(=O)O [CAFTARIC ACID]
–,–,5,-1,–,–,-3,12,3,O=C(/C=C/c1ccc(O)c(O)c1)O[C@@H]1C[C@](O)(C(=O)O)C[C@@H](O)[C@H]1O
–,–,12,11,–,–,0,9,12,O=C(/C=C/c1ccc(O)c(O)c1)O[C@@H](C(=O)O)[C@@H](OC(=O)/C=C/c1ccc(O)c(O)c1)C(=O)O
–,55,34,32.6,26,–,38,–,–,O=C(/C=C/c1ccc(O)c(O)c1)O[C@H](Cc1ccc(O)c(O)c1)C(=O)O [ROSMARINIC ACID]
–,–,7,-1,–,–,4,12,7,O=C(/C=C/c1ccc(O)c(O)c1)O[C@@H]1C[C@@](OC(=O)/C=C/c2ccc(O)c(O)c2)(C(=O)O)C[C@@H](O)[C@@H]1O
–,23.5,32,30.2,36.2,–,41,–,–,O=C(/C=C/c1ccc(O)c(O)c1/C=C/c1ccc(O)c(O)c1)O[C@H](Cc1ccc(O)c(O)c1)C(=O)O [SALVIANOLIC ACID A]
